# The supplement of paper PMC13380429
# Tests used:
# Settings in all cases: 72 h
# HepG2 [1] = assay: cell viability relative to DMSO; higher = less toxic
# U2OS [2] = assay: as above
# Vero E6 [3] = assay: as above
# Calu-3 [4] = assay: as above
# Caco-2 [5] = assay: as above
# HepG2 [6] = assay: drug sensitivity score (DSS) for viability; higher = more toxic; extreme values may be limits of the assay
# U2OS [7] = assay: as above
# Vero E6 [8] = assay: as above
# Calu-3 [9] = assay: as above
# Caco-2 [10] = assay: as above
# HepG2 [11] = assay: relative viability EC50 (midpoint between 100% and the lowest measured viability); higher = less toxic
# U2OS [12] = assay: as above
# Vero E6 [13] = assay: as above
# Calu-3 [14] = assay: as above
# Caco-2 [15] = assay: as above
SMILES,cell viability (HepG2 [1]; 1 nM) [%],cell viability (HepG2 [1]; 10 nM) [%],cell viability (HepG2 [1]; 100 nM) [%],cell viability (HepG2 [1]; 1000 nM) [%],cell viability (HepG2 [1]; 10000 nM) [%],cell viability (U2OS [2]; 1 nM) [%],cell viability (U2OS [2]; 10 nM) [%],cell viability (U2OS [2]; 100 nM) [%],cell viability (U2OS [2]; 1000 nM) [%],cell viability (U2OS [2]; 10000 nM) [%],cell viability (Vero E6 [3]; 1 nM) [%],cell viability (Vero E6 [3]; 10 nM) [%],cell viability (Vero E6 [3]; 100 nM) [%],cell viability (Vero E6 [3]; 1000 nM) [%],cell viability (Vero E6 [3]; 10000 nM) [%],cell viability (Calu-3 [4]; 1 nM) [%],cell viability (Calu-3 [4]; 10 nM) [%],cell viability (Calu-3 [4]; 100 nM) [%],cell viability (Calu-3 [4]; 1000 nM) [%],cell viability (Calu-3 [4]; 10000 nM) [%],cell viability (Caco-2 [5]; 1 nM) [%],cell viability (Caco-2 [5]; 10 nM) [%],cell viability (Caco-2 [5]; 100 nM) [%],cell viability (Caco-2 [5]; 1000 nM) [%],cell viability (Caco-2 [5]; 10000 nM) [%],drug sensitivity score (HepG2 [6]),drug sensitivity score (U2OS [7]),drug sensitivity score (Vero E6 [8]),drug sensitivity score (Calu-3 [9]),drug sensitivity score (Caco-2 [10]),relative viability EC50 (HepG2 [11]) [µM],relative viability EC50 (U2OS [12]) [µM],relative viability EC50 (Vero E6 [13]) [µM],relative viability EC50 (Calu-3 [14]) [µM],relative viability EC50 (Caco-2 [15]) [µM]
COC(=O)[C@@H](N)CS [mecysteine],108,107,99.6,91.1,105,98.2,101,96.3,100,95.3,95.8,97.5,98.5,88.6,101,104,106,87.2,109,99.2,96.1,95,97.7,99.8,102,0,0,0,0,0,> 10,> 10,> 10,> 10,> 10
NC[C@@H]1CC[C@@H](N)[C@@H](O[C@H]2[C@H](O)[C@@H](O[C@H]3O[C@H](CO)[C@@H](O)[C@H](N)[C@H]3O)[C@H](N)C[C@@H]2N)O1 [dibekacin],96.5,101,89.1,102,94.5,104,97.9,101,98,104,103,103,98.1,101,101,101,91.9,114,101,95,96,94.4,101,93.5,106,0,0,0,0,0,> 10,> 10,> 10,> 10,> 10
CN(C(=O)CCCOc1ccc2[nH]c(=O)ccc2c1)C1CCCCC1 [cilostamide],97.2,98.7,98.8,110,110,102,95.5,101,92.9,97,91.7,98.3,89.8,98.1,104,92.8,92.9,94.6,85.3,105,100,94.7,99.2,96.9,90.6,0,0,0,0,0,> 10,> 10,> 10,> 10,> 10
COC1=C(OC)C(=O)C(CCCCCCCCCCO)=C(C)C1=O [idebenone],96.1,95.6,99.4,95.9,97.7,98.6,105,94.9,97.7,93.8,102,100,96.9,97.8,97.7,100,104,90.3,98,95.5,96.4,101,103,98.4,88.6,0,0,0,0,0.1,> 10,> 10,> 10,> 10,> 10
N[C@H](C(=O)O)c1ccc(O)cc1 [oxfenicine],84.1,96.3,96.9,103,100,99.7,103,98.6,102,95.7,99.7,96.3,101,91.3,99.1,103,95.1,99.2,103,103,94.2,90.6,88.6,88.6,96.3,0,0,0,0,0,> 10,> 10,> 10,> 10,> 10
Cc1cc(=O)[nH]c(=S)[nH]1 [methylthiouracil],107,108,95.1,95.3,105,103,99,98.7,97.4,97.3,101,92.6,100,92.1,97.8,106,109,83.8,97.7,96.6,98.7,96.6,99.3,96.3,94.6,0,0,0,0,0,> 10,> 10,> 10,> 10,> 10
Cc1cccc(-c2[nH]c(CNc3ccccc3F)nc2-c2ccc3ncnn3c2)n1 [EW-7197],95.1,104,106,103,93.3,99.1,99.4,94.4,95.5,85.5,102,105,102,95.4,98.7,97.3,88.4,96.9,114,105,95.7,96.4,94.1,109,99.4,0,0.1,0,0,0,> 10,> 10,> 10,> 10,> 10
